Our source for the IC50 values is patent publication US20240327412A1, “FACTOR XIIA INHIBITORS” (KALVISTA PHARMACEUTICALS LIMITED, priority 2021, published 2024).

Format in all cases: biochemical
One test addresses T1, Plasma Kallikrein (Homo sapiens, UniProt P03952).
T1 construct: FXIIa converts plasma prekallikrein (PK) to plasma kallikrein (PKa)
In words: Related protease inhibition: Plasma Kallikrein (fluorogenic substrate at Km). The conditions noted are these: class symbols per Table 18, read-out: IC50 (human PKal). In outline: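 Read-out is the linear per-minute rise in fluorescence liberated from substrate, monitored for 5 min at 25° C and expressed as % activity. Substrate sat at Km, except for FXIa, which used 100 μM. IC50 values come from the concentration producing half-maximal inhibition.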

The target of another test is Plasmin (Homo sapiens, UniProt P00747). In words: Related protease inhibition: Plasmin (fluorogenic substrate at Km). The note with it: class symbols per Table 18. As to the method: (§1) In vitro inhibition of related proteases was determined using an IC50 assay based on standard literature methods (see e.g. Shori et al., Biochem. Pharmacol., 1992, 43, 1209; Bouckaert et al., European Journal of Medicinal Chemistry 110 (2016) 181). Human serine protease enzyme Plasma Kallikrein, KLK1, FXa, Plasmin, Thrombin and Trypsin were assayed for enzymatic activity using an appropriate fluorogenic substrate at Km concentration, FXIa at fixed substrate concentration of 100 μM and various concentrations of the test compound. Protease activity was measured by monitoring the accumulation of liberated fluorescence from the substrate over 5 min at 25° C. The linear rate of fluorescence increase per minute was expressed as percentage (%) activity. IC50 values were calculated as the concentration of inhibitor giving 50% inhibition of the uninhibited enzyme activity (100%).
Chain of Plasmin (P00747 581-810 limits assumed): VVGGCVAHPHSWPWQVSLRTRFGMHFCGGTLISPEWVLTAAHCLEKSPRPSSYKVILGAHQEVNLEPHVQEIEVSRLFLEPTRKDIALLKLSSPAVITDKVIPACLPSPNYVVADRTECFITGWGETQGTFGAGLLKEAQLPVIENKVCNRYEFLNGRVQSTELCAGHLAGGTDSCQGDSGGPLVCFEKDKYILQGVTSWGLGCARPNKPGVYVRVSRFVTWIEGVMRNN
Chain of Plasmin (P00747 97-580 partner limits assumed): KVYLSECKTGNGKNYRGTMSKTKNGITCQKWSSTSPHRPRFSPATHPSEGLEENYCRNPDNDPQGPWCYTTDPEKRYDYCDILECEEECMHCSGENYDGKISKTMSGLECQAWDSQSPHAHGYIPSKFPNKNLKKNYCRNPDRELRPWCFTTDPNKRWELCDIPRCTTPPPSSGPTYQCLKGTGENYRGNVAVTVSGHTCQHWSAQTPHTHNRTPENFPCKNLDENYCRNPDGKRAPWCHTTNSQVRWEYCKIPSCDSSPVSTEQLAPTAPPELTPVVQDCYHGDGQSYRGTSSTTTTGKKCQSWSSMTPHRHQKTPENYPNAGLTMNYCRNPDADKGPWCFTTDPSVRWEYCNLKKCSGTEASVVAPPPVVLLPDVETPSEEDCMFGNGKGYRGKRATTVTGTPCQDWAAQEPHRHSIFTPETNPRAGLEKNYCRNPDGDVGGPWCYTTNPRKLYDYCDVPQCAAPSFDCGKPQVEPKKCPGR

The target of the next test is KLK1 (Homo sapiens, UniProt P06870). In words: Related protease inhibition: KLK1 (fluorogenic substrate at Km). The conditions noted are these: class symbols per Table 18. In outline:
(§2)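 Each human protease was incubated with substrate and test compound over a concentration range; fluorescence release was then recorded for 5 min at 25° C. Rates were normalized to uninhibited enzyme (100%) to derive IC50.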

The next test deals with T2, Human Factor XIIa (Homo sapiens, UniProt P00748).
T2 construct: Proteolytic cleavage of FXII to heavy and light chains of FXIIa dramatically increases catalytic activity; purchased Enzyme Research Laboratories
T2 sequence (P00748 373-615 limits assumed): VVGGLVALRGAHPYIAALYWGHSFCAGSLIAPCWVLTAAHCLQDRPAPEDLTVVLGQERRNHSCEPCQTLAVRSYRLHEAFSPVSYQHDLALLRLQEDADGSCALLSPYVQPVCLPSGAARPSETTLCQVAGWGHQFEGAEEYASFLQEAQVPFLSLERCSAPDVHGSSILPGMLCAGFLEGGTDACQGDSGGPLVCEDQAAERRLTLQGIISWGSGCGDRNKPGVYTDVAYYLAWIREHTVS
T2 sequence (P00748 20-372 partner limits assumed): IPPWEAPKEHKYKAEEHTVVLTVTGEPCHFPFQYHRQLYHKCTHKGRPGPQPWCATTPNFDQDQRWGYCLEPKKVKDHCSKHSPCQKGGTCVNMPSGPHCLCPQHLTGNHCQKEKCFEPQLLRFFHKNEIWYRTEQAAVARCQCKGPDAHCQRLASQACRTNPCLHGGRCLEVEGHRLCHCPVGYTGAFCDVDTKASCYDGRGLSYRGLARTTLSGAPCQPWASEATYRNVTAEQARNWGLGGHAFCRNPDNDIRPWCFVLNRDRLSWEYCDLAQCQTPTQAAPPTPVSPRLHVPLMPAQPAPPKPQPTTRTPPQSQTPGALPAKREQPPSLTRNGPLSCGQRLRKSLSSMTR
Put plainly: Determination of FXIIa inhibition (fluorogenic substrate H-DPro-Phe-Arg-AFC, IC50 assay). The conditions noted are these: substrate at Km concentration, 25° C.; category scale; read-out: Human FXII IC50 (nm). Summed up:
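At substrate Km and 25° C., the rate of AFC release from H-DPro-Phe-Arg-AFC by human Factor XIIa was followed for 5 min across compound concentrations. Inhibition was derived as percent of uninhibited rate, giving IC50.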

The next test has as its target Trypsin (Homo sapiens, UniProt P07477). In words: Related protease inhibition: Trypsin (fluorogenic substrate at Km). The conditions noted are these: class symbols per Table 18. As to the method: as §1
For another test, the target named is Thrombin (Homo sapiens, UniProt P00734). In words: Related protease inhibition: Thrombin (fluorogenic substrate at Km). The conditions noted are these: class symbols per Table 18. On the procedure: as §1
The target in the next test is FXa (Homo sapiens, UniProt P00742). Put plainly: Related protease inhibition: FXa (fluorogenic substrate at Km). The note with it: class symbols per Table 18. Summed up: as §2
Chain of FXa (P00742 235-488 limits assumed): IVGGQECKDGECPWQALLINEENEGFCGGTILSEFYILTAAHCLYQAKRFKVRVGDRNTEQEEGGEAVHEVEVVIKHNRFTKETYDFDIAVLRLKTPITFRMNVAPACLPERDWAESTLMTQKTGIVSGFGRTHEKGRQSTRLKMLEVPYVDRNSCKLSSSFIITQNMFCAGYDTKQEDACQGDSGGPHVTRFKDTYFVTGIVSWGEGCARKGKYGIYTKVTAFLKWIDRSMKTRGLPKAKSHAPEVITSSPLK
Chain of FXa (P00742 41-179 partner limits assumed): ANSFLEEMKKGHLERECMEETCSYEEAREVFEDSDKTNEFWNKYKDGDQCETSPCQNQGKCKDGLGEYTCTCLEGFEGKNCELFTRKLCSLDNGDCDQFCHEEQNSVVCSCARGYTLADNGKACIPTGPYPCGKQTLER

T1 sequence (P03952 391-638 limits assumed): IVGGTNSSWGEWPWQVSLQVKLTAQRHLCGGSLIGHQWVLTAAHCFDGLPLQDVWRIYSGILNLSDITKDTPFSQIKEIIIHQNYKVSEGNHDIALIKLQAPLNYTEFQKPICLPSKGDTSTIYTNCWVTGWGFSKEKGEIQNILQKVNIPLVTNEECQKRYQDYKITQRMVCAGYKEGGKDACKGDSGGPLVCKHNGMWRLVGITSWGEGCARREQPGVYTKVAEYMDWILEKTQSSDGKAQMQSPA
T1 sequence (P03952 20-390 partner limits assumed): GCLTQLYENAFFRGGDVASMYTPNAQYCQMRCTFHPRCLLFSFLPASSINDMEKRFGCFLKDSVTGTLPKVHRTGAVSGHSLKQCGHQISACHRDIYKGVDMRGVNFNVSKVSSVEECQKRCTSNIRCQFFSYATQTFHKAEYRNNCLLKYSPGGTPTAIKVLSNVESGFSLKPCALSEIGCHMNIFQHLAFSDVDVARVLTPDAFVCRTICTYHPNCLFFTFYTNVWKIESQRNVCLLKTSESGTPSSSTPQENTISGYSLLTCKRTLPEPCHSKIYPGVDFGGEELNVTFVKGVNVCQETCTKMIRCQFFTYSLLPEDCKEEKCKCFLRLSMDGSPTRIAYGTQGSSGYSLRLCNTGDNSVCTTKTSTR
Chain of KLK1 (P06870 25-262): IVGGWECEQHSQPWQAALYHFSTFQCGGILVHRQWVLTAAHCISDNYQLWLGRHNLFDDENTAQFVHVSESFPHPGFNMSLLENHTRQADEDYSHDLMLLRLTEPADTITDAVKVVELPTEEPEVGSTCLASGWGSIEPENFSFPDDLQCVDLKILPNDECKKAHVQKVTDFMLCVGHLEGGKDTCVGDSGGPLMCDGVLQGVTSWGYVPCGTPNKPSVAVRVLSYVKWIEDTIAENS

`Cn1ccc(OCC23CC(CNc4cccc5c(N)nccc45)(CO2)C3)cc1=O` [Example 2205, 4-((4-(((1-aminoisoquinolin-5-yl)amino)methyl)-2-oxabicyclo[2.1.1]hexan-1-yl)methoxy)-1-methylpyridin-2(1H)-one]: the 50% inhibitory concentration (IC50) at Plasma Kallikrein is more than 40 µM; on Plasmin, more than 40 µM; against KLK1 it was 10 to 40 µM; at Human Factor XIIa, 0.3 to 1 µM; against Trypsin, more than 40 µM; against Thrombin, more than 40 µM. On FXa, this compound returned an IC50 of more than 40 µM.
As to `Cc1cc(OCC23CCOC(CNc4cccc5c(N)nccc45)(C2)C3)cc(=O)n1C` [Example 10928, 4-((1-(((1-Aminoisoquinolin-5-yl)amino)methyl)-2-oxabicyclo[3.1.1]heptan-5-yl)methoxy)-1,6-dimethylpyridin-2(1H)-one], the IC50 at Plasma Kallikrein is more than 40 µM; against Plasmin, more than 40 µM; on KLK1, 10 to 40 µM; at Human Factor XIIa, 0.01 to 0.1 µM; at Trypsin, 10 to 40 µM; at Thrombin, more than 40 µM. At FXa, this compound came in with an IC50 of 10 to 40 µM.
As to `Cc1cnc2ccc(OCC34CC(CNc5cccc6c(N)nccc56)(CO3)C4)cn12` [Example 2212, N5-((1-(((3-methylimidazo[1,2-a]pyridin-6-yl)oxy)methyl)-2-oxabicyclo[2.1.1]hexan-4-yl)methyl)isoquinoline-1,5-diamine], the IC50 was 10 to 40 µM on Plasma Kallikrein; more than 40 µM on Plasmin; 1 to 3 µM against KLK1; 0.01 to 0.1 µM at Human Factor XIIa; 10 to 40 µM against Trypsin; more than 40 µM against Thrombin. Also, on FXa, the concentration for half-maximal inhibition (IC50) lay within 10 to 40 µM.
Take `Nc1nccc2c(NCC34CC(COc5ccc6nnc(C(F)F)n6c5)(CO3)C4)cccc12` [Example 6620, N5-((4-(((3-(difluoromethyl)-[1,2,4]triazolo[4,3-a]pyridin-6-yl)oxy)methyl)-2-oxabicyclo[2.1.1]hexan-1-yl)methyl)isoquinoline-1,5-diamine]: the IC50 on Plasma Kallikrein is more than 40 µM; at Plasmin, more than 40 µM; at KLK1, 3 to 10 µM; at Human Factor XIIa, 0.3 to 1 µM; against Trypsin, 3 to 10 µM; on Thrombin, more than 40 µM. On FXa, this compound came in with an IC50 of more than 40 µM.
As to `Nc1nccc2c(N3CCC4(CC(COc5ccn6ccnc6c5)C4)C3)cccc12` (single isomer, unassigned) [Example 8806, 5-(trans*-2-((imidazo[1,2-a]pyridin-7-yloxy)methyl)-6-azaspiro[3.4]octan-6-yl)isoquinolin-1-amine], the IC50 at Plasma Kallikrein is more than 40 µM; against Plasmin, more than 40 µM; at KLK1, 10 to 40 µM; at Human Factor XIIa it was 0.1 to 0.3 µM; against Trypsin it was more than 40 µM; against Thrombin, more than 40 µM. Also, at FXa, the half-inhibitory concentration (IC50) was more than 40 µM.
In the case of `Cn1ccc(OCC23CC(CNc4cccc5c(N)nccc45)(CCO2)C3)cc1=O` [Example 11001, 4-((5-(((1-aminoisoquinolin-5-yl)amino)methyl)-2-oxabicyclo[3.1.1]heptan-1-yl)methoxy)-1-methylpyridin-2(1H)-one], the IC50 at Plasma Kallikrein was more than 40 µM; against Plasmin it was more than 40 µM; against KLK1, 10 to 40 µM; at Human Factor XIIa it was 0.1 to 0.3 µM; on Trypsin it was 10 to 40 µM; against Thrombin, more than 40 µM. Also, the IC50 against FXa was more than 40 µM.
In the case of `Nc1nccc2c(NCC34CC(COc5ccn6cnnc6c5)(CO3)C4)cccc12` [Example 6629, N5-((4-(([1,2,4]triazolo[4,3-a]pyridin-7-yloxy)methyl)-2-oxabicyclo[2.1.1]hexan-1-yl)methyl)isoquinoline-1,5-diamine], the half-inhibitory concentration (IC50) is more than 40 µM at Plasma Kallikrein; 10 to 40 µM on Plasmin; 1 to 3 µM at KLK1; 0.01 to 0.1 µM at Human Factor XIIa; 10 to 40 µM against Trypsin; more than 40 µM against Thrombin. This compound returned an IC50 against FXa of more than 40 µM.
`Cn1ccc(OCC23CN(CCCc4ccccc4)C(CNc4cccc5c(N)nccc45)(C2)C3)cc1=O` [Example 12019, 4-((1-(((1-Aminoisoquinolin-5-yl)amino)methyl)-2-(3-phenylpropyl)-2-azabicyclo[2.1.1]hexan-4-yl)methoxy)-1-methylpyridin-2(1H)-one]: the half-inhibitory concentration (IC50) at Plasma Kallikrein was more than 40 µM; at Plasmin, more than 40 µM; against KLK1 it was 1 to 3 µM; on Human Factor XIIa, 0.01 to 0.1 µM; against Trypsin, more than 40 µM; at Thrombin, more than 40 µM. Also, on FXa, the IC50 was more than 40 µM.
For `Cn1ccc(OCC23CCOC(CNc4cccc5c(N)nccc45)(C2)C3)nc1=O` [Example 10940, 4-((1-(((1-aminoisoquinolin-5-yl)amino)methyl)-2-oxabicyclo[3.1.1]heptan-5-yl)methoxy)-1-methylpyrimidin-2(1H)-one], the IC50 on Plasma Kallikrein was more than 40 µM; against Plasmin it was more than 40 µM; at KLK1 it was 10 to 40 µM; on Human Factor XIIa, 0.1 to 0.3 µM; on Trypsin, 10 to 40 µM; at Thrombin, more than 40 µM. The IC50 on FXa was more than 40 µM.
For the compound `Cc1cc(OCC23CN(C(=O)NCc4ccccc4)C(CNc4cccc5c(N)nccc45)(C2)C3)cc(=O)n1C` [Example 12038, 1-(((1-aminoisoquinolin-5-yl)amino)methyl)-N-benzyl-4-(((1,6-dimethyl-2-oxo-1,2-dihydropyridin-4-yl)oxy)methyl)-2-azabicyclo[2.1.1]hexane-2-carboxamide], the IC50 was 3 to 10 µM at Plasma Kallikrein; 10 to 40 µM at Plasmin; 3 to 10 µM against KLK1; 0.001 to 0.01 µM on Human Factor XIIa; 10 to 40 µM on Trypsin; more than 40 µM against Thrombin. For the same compound, on FXa, the IC50 fell in the range of 1 to 3 µM.
Take `Cn1ccc(OCC23CN(C(=O)Nc4ccccc4)C(CNc4cccc5c(N)nccc45)(C2)C3)cc1=O` [Example 12036, 1-(((1-aminoisoquinolin-5-yl)amino)methyl)-4-(((1-methyl-2-oxo-1,2-dihydropyridin-4-yl)oxy)methyl)-N-phenyl-2-azabicyclo[2.1.1]hexane-2-carboxamide]: the IC50 was 10 to 40 µM at Plasma Kallikrein; 3 to 10 µM against Plasmin; 1 to 3 µM against KLK1; 0.001 to 0.01 µM on Human Factor XIIa; more than 40 µM at Trypsin; more than 40 µM against Thrombin. Moreover, at FXa, the IC50 was in the range of 10 to 40 µM.
Consider `Nc1nccc2c(NCC34CC(COc5ccc6c(c5)CNC6=O)(CO3)C4)cccc12` [Example 6618, 5-[[1-[[(1-Aminoisoquinolin-5-yl)amino]methyl]-2-oxabicyclo[2.1.1]hexan-4-yl]methoxy]-2,3-dihydroisoindol-1-one], for which the IC50 was more than 40 µM on Plasma Kallikrein; more than 40 µM at Plasmin; 3 to 10 µM on KLK1; 0.01 to 0.1 µM on Human Factor XIIa; 10 to 40 µM at Trypsin; more than 40 µM against Thrombin. The IC50 against FXa fell in the range of 10 to 40 µM.
Take `CN1Cc2cc(OCC34COC(CNc5cccc6c(N)nccc56)(C3)C4)ccc2C1=O` [Example 6621, 5-((1-(((1-aminoisoquinolin-5-yl)amino)methyl)-2-oxabicyclo[2.1.1]hexan-4-yl)methoxy)-2-methylisoindolin-1-one]: the IC50 on Plasma Kallikrein was more than 40 µM; at Plasmin, more than 40 µM; against KLK1 it was 3 to 10 µM; on Human Factor XIIa, 0.1 to 0.3 µM; against Trypsin, more than 40 µM; at Thrombin, more than 40 µM. At FXa, the IC50 was more than 40 µM.

As a reminder, the IC50 is the concentration needed to halve the response being measured.
